The target of data set [1] is T1, αβ (1:1) GluClRs (Haemonchus contortus, UniProt O46124+P91730). Put plainly: Single channel recording, outside-out patches, αβ (1:1) GluClRs. To be noted: for mean active period duration: −70 mV. It is filed as cell-based, H. contortus. An excerpt:
(§1) To explore whether a similar mechanism applies to β-containing GluClRs, we recorded single receptor currents in excised patches from cells transfected with either the α and β subunits (1:1) or the β subunit alone. […] By contrast, patches from cells transfected with the β subunit alone invariably opened to an amplitude of 0.4 pA (Fig 6C). Amplitude histograms confirmed two amplitude levels for αβ GluClRs and a single amplitude for the β GluClRs (Fig 6D). […] We infer that the αβ GluClRs that open to 0.7 pA likely contain a greater proportion of β subunits. This is consistent with β GluClRs having the smallest amplitude and α GluClRs having the greatest amplitude (1.8 pA) under similar recording conditions. The calculated conductance values for the corresponding amplitudes for αβ GluClRs was 15.2 pS and 8.9 pS and for the β GluClRs was 5.1 pS.
(§2) Single-channel currents were recorded from outside-out excised patches at a clamped potential of −70 mV. The single channel conductance was calculated by dividing the mean current by the net driving force at a clamped potential of ‐70 mV, after accounting for reversal and liquid junction potentials. Excised patches were continuously perfused via a gravity-fed double-barrelled glass tube, which contained extracellular bath solution containing (in mM), 140 NaCl, 5 KCl, 1 MgCl2, 2 CaCl2, 10 HEPES, and 10 D-glucose and titrated to pH 7.4. Glutamate and IVM were dissolved in this extracellular solution. Recording electrodes were pulled from borosilicate glass (G150F-3; Warner Instruments), coated with a silicone elastomer (Sylgard-184; Dow Corning) and heat-polished to a final tip resistance of 4–15 MΩ when filled with an intracellular solution containing (in mM) 145 CsCl, 2 MgCl2, 2 CaCl2, 10 HEPES, and 5 EGTA, pH 7.4. […] A 10 mM stock of IVM (Sigma-Aldrich) was dissolved in 100% DMSO and kept frozen at ‐20°C. Fresh working stocks of IVM at 5 nM were prepared by dissolving the appropriate quantity directly in extracellular solution. 100% DMSO when dissolved in extracellular solution alone at the same concentration as was present in working solutions containing 5 nM IVM had no effect on patches excised from cells transfected with GluClRs or from untransfected cells.
(§3) Currents were recorded using an Axopatch 200B amplifier (Molecular Devices), filtered at 5 kHz and digitized at 20 kHz using Clampex (pClamp 10 suite, Molecular Devices) via a Digidata 1440A digitizer.
(§4) Group data were analysed in SigmaPlot 13.0 using one-way ANOVAs, where p < 0.05 was taken as the significance threshold and expressed as mean ± SEM. Tests for normally distributed data are built into the SigmaPlot software. Confocal images were captured and analysed with Zen 2012 SP2 (Zeiss) software. Oocyte concentration-response data were fit to a Hill equation to obtain an EC50 and Hill co-efficient for each oocyte recording. These parameters were then averaged across multiple oocyte experiments of the same type. Single channel recordings were analysed in QuB software. […] Patches yielded between 30–250 individual active periods. […] The selected critical times eliminated periods of receptor desensitisation while retaining singe receptor active periods. Mean active period duration and intra-activation open probability was estimated from each patch. Group means were obtained by averaging across multiple patches for each recording condition.

A further data set addresses α (avr-14b) GluClRs (Haemonchus contortus, UniProt O46124). Nature of the data set: Two-electrode voltage clamp in oocytes, α GluClRs. The class given is cell-based, H. contortus. The protocol:
(§5) cDNAs encoding the α (avr-14b) (pcDNA 3.1+) or β (pUNIV) GluClR subunits of H. contortus were nuclear injected into oocytes (NASCO, WI USA) or transfected into HEK293AD cells (CellBank Australia) using a calcium phosphate-DNA co-precipitate method. Synapse formation between neurons and HEK293 cells was promoted by co-transfecting neuroligin 2A or 1B and the cDNA encoding CD4 surface antigen was also added to the transfection mixture so as to identify transfected cells. The oocytes and HEK cells were used for experiments 2–3 days after the introduction of the cDNAs. All experiments were done at room temperature (22 ± 1°C).
(§6) Xenopus laevis oocytes were harvested by surgical incision. The oocytes were then defolliculated with 1.5 mg/ml collagenase for 2 hours. Free oocytes were rinsed with calcium-free OR-2 solution containing (in mM) 82.5 NaCl, 2 KCl, 1 MgCl2, 5 HEPES, pH 7.4 and mature stage V or VI oocytes were isolated for experiments. The DNAs coding for α and β subunits were nuclear injected into the oocytes using a Nanoliter 2000 microinjector (WPI Inc) at a ratio of (α:β), 1:0, 0:1, 1:1 and 1:50. The total amount of injected DNA in all combinations was 400 ng ml^−1, including the 1:50 (α:β) combination (8 ng of DNA encoding the α and 392 ng of DNA encoding β subunits). Injected oocytes were incubated in ND96 storage solution (in mM) 96 NaCl, 2 KCl, 1 MgCl2.6H2O, 1.8 CaCl2, 5 HEPES, 50 μg ml^−1 gentamicin, 2.5 sodium pyruvate, 0.5 theophylline, pH 7.4 at 16°C for 2–3 days before experiment.
(§7) For the two-electrode voltage clamp recordings, each oocyte was secured in a cell bath that was continually perfused with ND96 recording solution (ND96 storage solution without pyruvate, theophylline and gentamicin). […] The two microelectrodes contained 3 M KCl and had resistances of 0.2–2 MΩ. Recordings were done using Clampex 10.2 software (Molecular Devices) at a clamped voltage of −40 mV. Currents were low-pass filtered at 200 Hz, sampled at 2 kHz using a Gene Clamp 500B amplifier and digitised by a Digidata 1440A interface. The IVM (IVM B1a) concentration-response experiments were standardised by using an application protocol that consisted of applying increasing concentrations of IVM for, respectively, 3 min, 3 min, 3 min, 2 min, 1 min, 1 min and 0.5 min.
(§8) Group data were analysed in SigmaPlot 13.0 using one-way ANOVAs, where p < 0.05 was taken as the significance threshold and expressed as mean ± SEM. Tests for normally distributed data are built into the SigmaPlot software. Confocal images were captured and analysed with Zen 2012 SP2 (Zeiss) software. Oocyte concentration-response data were fit to a Hill equation to obtain an EC50 and Hill co-efficient for each oocyte recording. These parameters were then averaged across multiple oocyte experiments of the same type. Single channel recordings were analysed in QuB software. […] The selected critical times eliminated periods of receptor desensitisation while retaining singe receptor active periods. Mean active period duration and intra-activation open probability was estimated from each patch. Group means were obtained by averaging across multiple patches for each recording condition.

In a further data set the target is αβ (1:50) GluClRs (Haemonchus contortus, UniProt O46124+P91730). Put plainly: Two-electrode voltage clamp in oocytes, αβ (1:50) GluClRs. It is filed as cell-based, H. contortus. On the procedure:
as §5, §6, §7, §8

The target of data set [2] is T2, β GluClRs (Haemonchus contortus, UniProt P91730). Put plainly: Single channel recording, outside-out patches, β GluClRs. The class given is cell-based, H. contortus.
T2 sequence (P91730 19-432): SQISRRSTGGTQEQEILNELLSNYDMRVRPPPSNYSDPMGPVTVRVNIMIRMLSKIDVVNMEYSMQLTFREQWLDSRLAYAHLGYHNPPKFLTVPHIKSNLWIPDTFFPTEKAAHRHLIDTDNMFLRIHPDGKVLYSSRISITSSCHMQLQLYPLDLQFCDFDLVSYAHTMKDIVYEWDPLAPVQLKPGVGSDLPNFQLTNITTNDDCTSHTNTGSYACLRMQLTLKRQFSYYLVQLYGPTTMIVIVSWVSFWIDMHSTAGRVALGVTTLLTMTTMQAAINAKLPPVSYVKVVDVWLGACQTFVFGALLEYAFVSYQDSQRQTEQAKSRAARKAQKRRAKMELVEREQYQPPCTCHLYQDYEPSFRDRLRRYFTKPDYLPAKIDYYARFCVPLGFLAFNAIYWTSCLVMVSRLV
Description: as §1, §2, §3, §4

Data set [3] has as its target T1, αβ (1:1) GluClRs. Nature of the data set: Two-electrode voltage clamp in oocytes, αβ (1:1) GluClRs. It is filed as cell-based, H. contortus. To be noted: glutamate-gated current, oocytes, 1:1. On the procedure: as §5, §6, §7
Group data were analysed in SigmaPlot 13.0 using one-way ANOVAs, where p < 0.05 was taken as the significance threshold and expressed as mean ± SEM. Tests for normally distributed data are built into the SigmaPlot software. Confocal images were captured and analysed with Zen 2012 SP2 (Zeiss) software. Oocyte concentration-response data were fit to a Hill equation to obtain an EC50 and Hill co-efficient for each oocyte recording. […] Single channel recordings were analysed in QuB software. […]

The target of data set [4] is T2, β GluClRs. Put plainly: Two-electrode voltage clamp in oocytes, β GluClRs. The class given is cell-based, H. contortus. To be noted: glutamate-gated current, oocytes. The protocol:
as §5
Xenopus laevis oocytes were harvested by surgical incision. The oocytes were then defolliculated with 1.5 mg/ml collagenase for 2 hours. Free oocytes were rinsed with calcium-free OR-2 solution containing (in mM) 82.5 NaCl, 2 KCl, 1 MgCl2, 5 HEPES, pH 7.4 and mature stage V or VI oocytes were isolated for experiments. The DNAs coding for α and β subunits were nuclear injected into the oocytes using a Nanoliter 2000 microinjector (WPI Inc) at a ratio of (α:β), 1:0, 0:1, 1:1 and 1:50. […]
Group data were analysed in SigmaPlot 13.0 using one-way ANOVAs, where p < 0.05 was taken as the significance threshold and expressed as mean ± SEM. […] Confocal images were captured and analysed with Zen 2012 SP2 (Zeiss) software. […] Single channel recordings were analysed in QuB software. […]

Data set [5] relates to Untransfected HEK293 cells. Nature of the data set: Membrane partitioning, time-lapse fluorescence. On the procedure:
Two types of experiments were conducted with IVM-bdpy. The first was aimed at monitoring the time-course of membrane accumulation. Untransfected HEK293 cells were incubated in extracellular solution containing 500 nM IVM-bdpy and time-lapse images were taken over a period of 30 min (Fig 8A). The change in total membrane fluorescence averaged from 5 repeat experiments was then plotted against time and fitted to a standard exponential function (Fig 8B). In a control experiment, the corresponding accumulation rate was also determined for bdpy. To obtain the net membrane partitioning time-course for IVM-1, the data for the bdpy alone was subtracted from the data obtained for IVM-bdpy (Fig 8B). The time constants for the three plots were 6.5 min for the IVM-bdpy, 8.2 min for the bdpy fluorophore and 6.0 min for IVM-1. As the lipophilic properties of IVM and IVM-1 are similar (logPs of 5.4 and 5.1, respectively), we infer this analysis quantitatively reflects the membrane partitioning properties of IVM. […] It should be noted, however, that the IVM-bdpy experiment was done using a 100-fold higher concentration of drug in un-transfected cells and represents passive membrane accumulation, whereas the current plateau involved IVM binding to and activating receptors.
Membrane partitioning and FRAP experiments were performed on an LSM 710 inverted 2-photon confocal microscope equipped with a 40X water immersion objective lens (1.2 NA/280 μM WD/0.208 μM/pixel and a GFP/Alexa 488 filter set. Untransfected HEK293 cells at a confluency of 50–75% were plated onto 35-mm glass bottom dishes one day prior to experiments. The IVM-bdpy fluorophore was dissolved in 100% DMSO and stored at ‐20°C at a concentration of 24 mM.
A Mai Tai eHP 2-photon laser/760-1040 nm was used as an excitation source (power at 920 nm) for the FRAP experiments. The laser and bleaching power were set to 7% and 75% respectively. Membrane partitioning images were taken for 35 min at 0.5 Hz after replacing the cell medium (extracellular solution) with one containing the IVM-bdpy probe at a concentration of 500 nM. FRAP images were taken at a frequency of 0.5 Hz for 10 min after a 30 min equilibration period in 500 nM IVM-bdpy.

Another data set can be described thus: Lipophilicity (logP). The class given is physicochemical.

T1 sequence (P91730 19-432): as above
T1 sequence (O46124 entry or part of it): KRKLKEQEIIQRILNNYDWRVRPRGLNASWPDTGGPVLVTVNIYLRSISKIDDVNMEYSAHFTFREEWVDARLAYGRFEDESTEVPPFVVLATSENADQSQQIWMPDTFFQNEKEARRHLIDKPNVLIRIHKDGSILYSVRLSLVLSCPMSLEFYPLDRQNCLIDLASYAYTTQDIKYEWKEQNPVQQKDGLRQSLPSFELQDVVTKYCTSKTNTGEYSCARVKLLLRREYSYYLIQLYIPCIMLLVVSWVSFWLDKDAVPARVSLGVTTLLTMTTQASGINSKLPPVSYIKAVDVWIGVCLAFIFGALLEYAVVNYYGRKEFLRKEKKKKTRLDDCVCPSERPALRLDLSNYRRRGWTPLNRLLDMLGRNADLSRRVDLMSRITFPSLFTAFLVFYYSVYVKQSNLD
Chain of αβ (1:50) GluClRs (O46124 entry or part of it): as above
Chain of αβ (1:50) GluClRs (P91730 19-432): as the sequence (P91730 19-432) above
Chain of α (avr-14b) GluClRs (O46124 entry or part of it): as the sequence (O46124 entry or part of it) above

`N[C@@H](CCC(=O)O)C(=O)O` [Glutamate, L-glutamate]: the “intra-activation open probability (PO)” value is recorded as 0.54 ± 0.06 at αβ (1:1) GluClRs [1] (2 μM glutamate), 0.83 ± 0.03 on αβ (1:1) GluClRs [1] (3 mM glutamate), 0.63 ± 0.07 on β GluClRs [2] (2 μM glutamate) and 0.70 ± 0.11 on β GluClRs [2] (3 mM glutamate). Also, the “mean active period duration” value on αβ (1:1) GluClRs [1] (2 μM glutamate, both stoichiometries pooled) is on record as 40 ± 10 ms; at αβ (1:1) GluClRs [1] (3 mM glutamate, pooled), 146 ± 15 ms; on β GluClRs [2] (2 μM glutamate, −70 mV) it was 7.5 ± 1.8 ms; on β GluClRs [2] (3 mM glutamate), 164 ± 31 ms. In addition, the maximal current on α (avr-14b) GluClRs (glutamate-gated current, oocytes) is recorded as 3.7 ± 0.8 μA; at αβ (1:50) GluClRs (glutamate-gated current, oocytes, 1:50), 2.2 ± 0.4 μA; on αβ (1:1) GluClRs [3], 2.0 ± 0.4 μA; on β GluClRs [4] it was 1.9 ± 0.3 μA.
`CC[C@H](C)[C@H]1O[C@]2(CC[C@@H]1C)C[C@@H]1C[C@@H](C/C=C(\C)[C@@H](O)[C@@H](C)/C=C/C=C3\CO[C@@H]4[C@H](O)C(C)=C[C@@H](C(=O)O1)[C@]34O)O2` [IVM-1]: the “efficacy (maximal current normalised to saturating glutamate) compared to IVM” value on α (avr-14b) GluClRs (30 nM, normalised to 5 mM glutamate) is “significantly less efficacious than IVM”; on αβ (1:50) GluClRs (30 nM, normalised to 5 mM glutamate, αβ 1:50), “preservation of efficacy”. Further, the “differential efficacy between α and αβ (1:50) GluClRs” value on αβ (1:50) GluClRs (30 nM, α versus αβ (1:50)) is “retained differential efficacy”. Moreover, the “net membrane partitioning time constant” value in data set [5] (bdpy data subtracted from IVM-bdpy data) came to 6.0 min. In addition, the “time to plateau of membrane partitioning” value in data set [5] (subtraction plot (IVM-bdpy minus bdpy)) is 18 to 20 min. In addition, in “Lipophilicity (logP)”, the log partition coefficient (logP) was 5.1.

Values taken from article PMC6368337, “GluClR-mediated inhibitory postsynaptic currents reveal targets for ivermectin and potential mechanisms of ivermectin resistance” (PLoS Pathogens, 2019).
